Earlier results in patent US20200115358A1, “ICARIIN AND ICARITIN DERIVATIVES” (H. LEE MOFFITT CANCER CENTER AND RESEARCH INSTITUTE, INC., priority 2016, published 2020).

System: MDSCs

Compound: COc1ccc(-c2oc3c(CCC(C)(C)O)c(O)cc(O)c3c(=O)c2O)cc1 [ICT]
- inflammatory responses associated with MDSCs: effectively inhibit

Compound: Icariin
- inflammatory responses associated with MDSCs: effectively inhibit
